Assay results published in patent US10730875B2, “Substituted imidazo[1,2-A]pyridin-2-ylamine compounds, and pharmaceutical compositions and methods of use thereof” (JN Therapeutics, priority 2015, dated 2020).

Target: JAK1 (Homo sapiens (Human), UniProt P23458)
Test: Cellular JAK1 assay: IL-6-mediated STAT3 phosphorylation in TF-1 cells
Type: cell-based
Conditions: IL-6 stimulation, STAT3 phosphorylation at Tyr705 (AlphaLISA), read-out: Inhibitory Activity Against JAK1 IC50
Protocol: The cellular potency of a compound on JAK1 or JAK2 inhibition is determined by measuring the cytokine-mediated phosphorylation of STAT proteins in TF-1 cells.
Human cytokines of IL-6 (R&D Systems, Cat. No. 206-IL-010/CF) and GM-CSF (R&D Systems, Cat. No. 215-GM-010/CF) are reconstituted at 10 μg/mL in D-PBS containing 0.1% BSA (Sigma, Cat. No. A8577) and human EPO (R&D Systems, Cat. No. 287-TC-500) at 500 U/mL in D-PBS containing 0.1% BSA. TF-1 cells (ATCC, CRL-2003) were grown in RPMI1640 (ATCC, Cat. No. 30-2001) supplemented with 2 ng/mL of recombinant human GM-CSF, 10% FBS (Gibco, Cat. No. 10437-028), and 100 U/mL penicillin-streptomycin (Gibco, Cat. No. 15140-122). The cells were maintained and propagated between 1×10^5 cells/mL to 7.5×10^5 cells/mL. Aliquots of the cells from early passages were preserved for liquid nitrogen storage. Frozen vials of the cells were thawed at 37° C. water bath. The cells were spun to remove freezing medium. The newly revived frozen cells were adapted in culture for 5-7 days before used for compound testing. The cells used in for compound testing were less than 20 subculture passages or 3 months in culture.
To test compounds, the TF-1 cells were harvested at a density of 3 to 7×10^5 cells/mL by centrifugation. After removing the culture medium, the resulting cell pellet was suspended and washed once by centrifugation with HBSS buffer (Gibco, Cat. No. 14025-092) containing 0.1% BSA. The cell pellet was resuspended in HBSS buffer at 7.5×10^6 cells/mL. Four micro-liters of the cells (3×10^4 cells in total) were added to each well of a white 384-well plate (Packard, Cat. No. 6005214).
The compounds were first diluted in dimethylsulfoxide (DMSO) (Sigma, Cat. No. D2650) to generate 9 3-fold diluted dosing concentrations in a 96-well polypropylene plate (Corning, Cat. No. 3365), followed by addition of HBSS buffer for another 125-fold dilution. To the cells, 2 μL of the diluted compounds were added and mixed by tapping the plate several times. The cells were incubated for 2 hrs of treatment. DMSO was used as a control and similarly diluted along and added to the cells.
To assay JAK1 inhibition, 2 μL of IL-6 diluted at 400 ng/mL (4×) in HBSS containing 0.1% BSA was added to the treated cells. The cells were then incubated for 30 min of cytokine treatment and lysed at the end by addition of 2 μL of 5×AlphaLISA SureFire Ultra lysis buffer from Perkin Elmer. The plate was agitated on a plate shaker for 10 min at room temperature. The cellular JAK1 activity was determined by measuring STAT3 phosphorylation at Tyr705 in lysates using the AlphaLISA SureFire Ultra kit (Perkin Elmer, Cat. No. ALSU-PST3-A500). A volume of 5 μL of acceptor mix and donor mix was added sequentially to lysates following the product protocol. The assay signals were recorded on EnVision plate reader (Perkin Elmer) with AlphaScreen optics setting.
The results are summarized in Table 3, where A represents a value no greater than 500 nM, B represents a value greater than 500 nM but no greater than 1 μM, C represents a value greater than 1 μM but no greater than 5 μM, and D represents a value greater than 5 μM.

Chain of JAK1 (P23458 whole entry): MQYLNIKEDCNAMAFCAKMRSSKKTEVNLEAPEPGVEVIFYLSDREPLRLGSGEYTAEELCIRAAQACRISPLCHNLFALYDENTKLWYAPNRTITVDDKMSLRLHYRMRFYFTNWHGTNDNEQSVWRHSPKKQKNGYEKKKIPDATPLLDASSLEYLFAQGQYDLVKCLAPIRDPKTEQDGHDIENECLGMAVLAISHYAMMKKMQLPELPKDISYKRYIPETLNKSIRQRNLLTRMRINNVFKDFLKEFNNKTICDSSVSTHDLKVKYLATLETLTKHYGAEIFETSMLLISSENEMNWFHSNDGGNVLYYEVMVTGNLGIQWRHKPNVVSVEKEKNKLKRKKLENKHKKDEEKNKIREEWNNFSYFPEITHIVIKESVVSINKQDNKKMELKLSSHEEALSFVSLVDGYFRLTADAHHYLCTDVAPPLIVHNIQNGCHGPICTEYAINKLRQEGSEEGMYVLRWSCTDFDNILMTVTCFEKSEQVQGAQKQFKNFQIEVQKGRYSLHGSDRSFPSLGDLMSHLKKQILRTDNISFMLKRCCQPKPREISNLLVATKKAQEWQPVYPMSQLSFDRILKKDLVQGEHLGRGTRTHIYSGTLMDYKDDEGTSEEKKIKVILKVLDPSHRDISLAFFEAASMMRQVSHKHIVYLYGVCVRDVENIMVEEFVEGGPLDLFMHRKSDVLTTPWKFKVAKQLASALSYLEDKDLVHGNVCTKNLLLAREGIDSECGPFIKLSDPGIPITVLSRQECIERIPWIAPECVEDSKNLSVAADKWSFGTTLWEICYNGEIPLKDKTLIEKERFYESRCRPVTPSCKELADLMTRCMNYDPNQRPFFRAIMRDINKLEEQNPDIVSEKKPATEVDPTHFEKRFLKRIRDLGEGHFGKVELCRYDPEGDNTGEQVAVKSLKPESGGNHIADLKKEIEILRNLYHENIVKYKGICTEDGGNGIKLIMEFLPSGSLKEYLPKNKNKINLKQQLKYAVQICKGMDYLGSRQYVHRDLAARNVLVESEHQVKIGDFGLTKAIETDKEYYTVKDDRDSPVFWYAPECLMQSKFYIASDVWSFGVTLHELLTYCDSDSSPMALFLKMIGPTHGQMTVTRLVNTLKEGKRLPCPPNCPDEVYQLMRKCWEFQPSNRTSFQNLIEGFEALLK

IC50: ≤ 500 nM
Structure (SMILES): O=C(Nc1cn2c(-c3ccc(CN4CCS(=O)(=O)CC4)cc3F)cccc2n1)C1CC1 [Compound 14]
